We go through 26 compounds from patent US6583309B1 (University of Medicine and Dentistry of New Jersey, priority 1999, dated 2003).

The target of the assay is TAR RNA. Briefly: In vitro binding of resin-bound compounds to TAR RNA (OD260 of unbound RNA). Also noted: species or system HIV. The following applies: in vitro assay; compounds of formula I on TentaGel beads incubated with TAR RNA overnight at 4° C. in TK buffer; read-out: Kd (nM), binding constants. As to the method:
Binding of compounds of formula I and V to TAR RNA was measured by evaluating their inhibition of TAR-TAT complex formation in the presence of increasing levels of the compound to be tested. The compounds of formula I were tested in an in vitro assay; the compounds of formula V were tested in an in vivo assay.
The TAR RNA used corresponds to the minimal sequence required for TAT responsiveness in vivo. This 29-residue oligonucleotide has the sequence: 5′-[…]-3′ (SEQ ID NO.: 1). TAR RNA was prepared by in vitro transcription. A “top strand” single-stranded DNA oligomer having the sequence 5′-TAATACGACTCACTATAG-3′ (SEQ ID NO.: 2) was annealed to a “bottom strand” single-stranded DNA template having the following sequence: 3′-[…]-5′ (SEQ ID NO.: 3), thereby generating a double-stranded region corresponding to a promoter sequence recognized by T7 RNA polymerase. Transcription was carried out in transcription buffer (40 mM Tris-HCl, pH 8.1, 1 mM spermidine, 0.01% Triton®X-100, 5 mM dithiothreitol, 4 mM each of ATP, GTP, CTP, and UTP at 37° C. for 4 to 5 hours. Reactions were performed in a volume of 0.02 ml containing 8 pmole of template (top strand annealed to bottom strand) and 40 to 60 units of T7 RNA polymerase. Transcription was terminated by adding an equal volume of loading buffer (9M urea, 1 mmol EDTA, 0.1M bromophenol blue in 1XTBE buffer; TBE is 45 mmol trisborate at pH 8). Product RNA was purified by electrophoresis through a denaturing 20% polyacrylamide gel containing 8M urea. RNA was extracted from the gel, precipitated, dissolved in dithylpyrocarbonate-treated water, and stored at −20° C. until used.
In vitro assay conditions: Compounds AA-DU were synthesized on TentaGel S—NH2 (4.6 mmole). All Fmoc-amino acids were purchased from Bachem (Torrance, Calif.). 1-hydroxybenzotriazole (HOBT) and diisopropylcarbodiimide (DIPCDI) were obtained from Aldrich Chemical Co., Milwalkee, Wis. Piperidine and trifluoroacetic acid were purchased from Applied Biosystems Division, Perkin-Elmer. Compounds AA-DU were synthesized manually according to standard solid-phase peptide synthesis protocols. Coupling efficiencies of residues at each step were monitored by Kaiser test. Deprotection of trimer peptides was carried out in 10% water in trifluoroacetic acid (1 mL) for 16 hours at room temperature. After filtration of solvents, the resin was washed with water (1 mL×4), DMF (1 mL×4), dichloromethane (1 mL×4), and dried under reduced pressure. The compounds attached to the resin (10 beads) were placed in an Eppendorf tube and washed with TK buffer ([…]). The beads were suspended in TK buffer ([…]) and incubated with TAR RNA ([…]) overnight at 4° C. The suspension was centrifuged and the supernatant containing unbound RNA was transferred to a cuvette for OD260 measurements. The UV absorbance was measured by a Shimadzu UV-1601 spectrometer. Equilibrium concentrations of RNA were determined from these measurements. Given that the initial concentrations of ligand and RNA are known, and assuming simple bimolecular receptor/substrate binding, dissociation constant (KD) was calculated from straightforward equations.
One may read the Kd as the free concentration of one partner at which half of the binding sites on the other are occupied at equilibrium, for simple one-to-one binding. On to `NCCCC[C@H](N)COC(=O)N[C@H](CCCCN)COC(=O)N[C@H](CCCCN)COC(N)=O` [Compound AA, Carbamic acid 6-amino-2-[6-amino-2-(2,6-diamino-hexyloxycarbonylamino)-hexyloxycarbonylamino]-hexyl ester], for which the equilibrium dissociation constant (Kd) worked out at 639 nM.

As for `NCCCCCCCN(CC(=O)N[C@@H](CCCCN)COC(N)=O)C(=O)OC[C@@H](N)CCCCN` [Compound DK, Carbamic acid 6-amino-2-{2-[(7-amino-heptyl)-(2,6-diamino-hexyloxycarbonyl)-amino]-acetylamino}-hexyl ester], the Kd came out at 1110 nM.

Turning to `NCCCC[C@H](N)COC(=O)N[C@@H](CCCCN)COC(=O)N[C@@H](CCCCN)COC(N)=O` (stereo in doubt) [Compound CJ, Carbamic acid 6-amino-2-[6-amino-2-(2,6-diamino-hexyloxycarbonylamino)-hexyloxycarbonylamino]-hexyl ester], the Kd came out at 1260 nM.

With `NCCCCCN(CC(=O)N[C@@H](CCCCN)COC(N)=O)C(=O)CNCCCCN` [Compound DH, Carbamic acid 6-amino-2-{2-[[2-(4-amino-butylamino)-acetyl]-(5-amino-pentyl)-amino]-acetylamino}-hexyl ester], the Kd came to 7690 nM.

`N=C(N)NCCC[C@H](N)COC(=O)N(CCCCCCCN)CC(=O)N[C@@H](CCCCN)COC(N)=O` [Compound DR]: the Kd was 460 nM.

Consider `NCCCCCCCN(CC(=O)N[C@@H](CCCCN)COC(N)=O)C(=O)OC[C@H](N)CCC(N)=O` [Compound DS, Carbamic acid 6-amino-2-{2-[(2-amino-4-carbamoyl-butoxycarbonyl)-(7-amino-heptyl)-amino]-acetylamino}-hexyl ester], for which the Kd amounted to 3150 nM.

`NCCCCCCCNCC(=O)N[C@H](CCCCN)COC(=O)N[C@@H](CCCCN)COC(N)=O` [Compound CF, Carbamic acid 6-amino-2-{6-amino-2-[2-(7-amino-heptylamino)-acetylamino]-hexyloxycarbonylamino}-hexyl ester]: the equilibrium dissociation constant (Kd) was 567 nM.

On to `NCCCC[C@H](COC(N)=O)NC(=O)OC[C@H](CCCCN)NC(=O)[C@H](N)CCCCN` (stereo in doubt) [Compound AM, Carbamic acid 6-amino-2-[6-amino-2-(2,6-diamino-hexanoylamino)-hexyloxycarbonylamino]-hexyl ester], for which the Kd came out at 183 nM.

Consider `NCCCCCCCN(CC(=O)N[C@H](CCCCN)COC(N)=O)C(=O)OC[C@H](N)CCC(N)=O` [Compound BS, Carbamic acid 6-amino-2-{2-[(2-amino-4-carbamoyl-butoxycarbonyl)-(7-amino-heptyl)-amino]-acetylamino}-hexyl ester], for which the Kd amounted to 639 nM.

As for `N=C(N)NCCC[C@H](N)COC(=O)N(CCCCN)CC(=O)N[C@@H](CCCCN)COC(N)=O` [Compound CZ, Carbamic acid 6-amino-2-{2-[(4-amino-butyl)-(2-amino-5-guanidino-pentyloxycarbonyl)-amino]-acetylamino}-hexyl ester], the Kd amounted to 183 nM.

As for `NCCCC[C@H](COC(N)=O)NC(=O)CN(CCCCN)C(=O)OC[C@H](N)CCC(N)=O` [Compound BA, Carbamic acid 6-amino-2-{2-[(4-amino-butyl)-(2-amino-4-carbamoyl-butoxycarbonyl)-amino]-acetylamino}-hexyl ester], the dissociation constant (Kd) was found to be 460 nM.

With `NCCCCCN(CC(=O)N[C@@H](CCCCN)COC(N)=O)C(=O)OC[C@H](N)CCC(N)=O` [Compound DJ, Carbamic acid 6-amino-2-{2-[(2-amino-4-carbamoyl-butoxycarbonyl)-(5-amino-pentyl)-amino]-acetylamino}-hexyl ester], the Kd stood at 603 nM.

With `NCCCCNCC(=O)N(CCCCN)CC(=O)N[C@H](CCCCN)COC(N)=O` [Compound AY, Carbamic acid 6-amino-2-(2-{(4-amino-butyl)-[2-(4-amino-butylamino)-acetyl]-amino}-acetylamino)-hexyl ester], the Kd stood at 403 nM.

For `NCCCC[C@H](COC(N)=O)NC(=O)OC[C@@H](CCCCN)NC(=O)OC[C@H](N)CCC(N)=O` [Compound AI, Carbamic acid 6-amino-2-[6-amino-2-(2-amino-4-carbamoyl-butoxycarbonylamino)-hexyloxycarbonylamino]-hexyl ester], the Kd came out at 603 nM.

Turning to `NCCCC[C@H](COC(N)=O)NC(=O)CN(CCCCN)C(=O)[C@@H](N)CCCCN` [Compound AU, Carbamic acid 6-amino-2-{2-[(4-amino-butyl)-(2,6-diamino-hexanoyl)-amino]-acetylamino}-hexyl ester], the Kd turned out to be 147 nM.

On to `NCCCCCCCN(CC(=O)N[C@H](CCCCN)COC(N)=O)C(=O)OC[C@H](N)CCCCN` [Compound BL, Carbamic acid 6-amino-2-{2-[(7-amino-heptyl)-(2,6-diamino-hexyloxycarbonyl)-amino]-acetylamino}-hexyl ester], for which the Kd was 718 nM.

In the case of `NCCCC[C@H](N)COC(=O)N(CCCCN)CC(=O)N[C@H](CCCCN)COC(N)=O` (stereo in doubt) [Compound AS, Carbamic acid 6-amino-2-{2-[(4-amino-butyl)-(2,6-diamino-hexyloxycarbonyl)-amino]-acetylamino}-hexyl ester], the Kd is 147 nM.

For the compound `NCCCCCCCNCC(=O)N(CCCCCCCN)CC(=O)N[C@H](CCCCN)COC(N)=O` [Compound BP, Carbamic acid 6-amino-2-(2-{(7-amino-heptyl)-[2-(7-amino-heptylamino)-acetyl]-amino}-acetylamino)-hexyl ester], the Kd came out at 2190 nM.

`NCCCC[C@@H](N)COC(=O)N[C@@H](CCCCN)C(=O)N[C@H](CCCCN)COC(N)=O` [Compound BU, Carbamic acid 6-amino-2-[6-amino-2-(2,6-diamino-hexyloxycarbonylamino)-hexanoylamino]-hexyl ester]: the Kd was found to be 1420 nM.

On to `NCCCC[C@H](COC(N)=O)NC(=O)OC[C@@H](CCCCN)NC(=O)[C@H](N)CCCCN` [Compound AD, Carbamic acid 6-amino-2-[6-amino-2-(2,6-diamino-hexanoylamino)-hexyloxycarbonylamino]-hexyl ester], for which the Kd is 2080 nM.

With `NCCCCCCCNCC(=O)N[C@H](CCCCN)COC(=O)N[C@H](CCCCN)COC(N)=O` [Compound AF, Carbamic acid 6-amino-2-{6-amino-2-[2-(7-amino-heptylamino)-acetylamino]-hexyloxycarbonylamino}-hexyl ester], the Kd came out at 491 nM.

In the case of `NCCCCCN(CC(=O)N[C@@H](CCCCN)COC(N)=O)C(=O)OC[C@@H](N)CCCCN` [Compound DB, Carbamic acid 6-amino-2-{2-[(5-amino-pentyl)-(2,6-diamino-hexyloxycarbonyl)-amino]-acetylamino}-hexyl ester], the Kd was found to be 256 nM.

`NCCCCCCCN(CC(=O)N[C@@H](CCCCN)COC(N)=O)C(=O)[C@@H](N)CCCCN` [Compound DM, Carbamic acid 6-amino-2-{2-[(7-amino-heptyl)-(2,6-diamino-hexanoyl)-amino]-acetylamino}-hexyl ester]: the equilibrium dissociation constant (Kd) worked out at 256 nM.

With `N=C(N)NCCC[C@H](N)COC(=O)N(CCCCCN)CC(=O)N[C@H](CCCCN)COC(N)=O` [Compound BI, Carbamic acid 6-amino-2-{2-[(2-amino-5guanidino-pentyloxycarbonyl)-(5-amino-pentyl)-amino]-acetylamino}-hexyl ester], the Kd is 202 nM.

With `NCCCC[C@H](COC(N)=O)NC(=O)OC[C@H](CCCCN)NC(=O)[C@@H](N)CCCCN` [Compound AL, Carbamic acid 6-amino-2-[6-amino-2-(2,6-diamino-hexanoylamino)-hexyloxycarbonylamino]-hexyl ester], the Kd amounted to 2720 nM.

As for `NCCCC[C@H](N)COC(=O)N(CCCCN)CC(=O)N[C@@H](CCCCN)COC(N)=O` [Compound CS, Carbamic acid 6-amino-2-{2-[(4-amino-butyl)-(2,6-diamino-hexyloxycarbonyl)-amino]-acetylamino}-hexyl ester], the dissociation constant Kd is 491 nM.
